Like-named read-outs stand apart in the source and are kept apart here. *1 amine or outer side, *2 acyl side, *3 side chain or, on linkers, in order; H or OH if unused. Where a SMILES comes first, the peptide text is derived from it. Side-chain parts run from the residue outwards. [ ]: non-standard residue; d: D form. The star is where a group is joined. αMePhe(2-F) = C[C@](N)(Cc1ccccc1F)C(=O)O; γGlu = O=C(O)[C@H](CCC(=O)[*:2])N[*:1]; C14 diacid = O=C(O)CCCCCCCCCCCCC(=O)*; αMeY = C[C@](N)(Cc1ccc(O)cc1)C(=O)O; 4Pal = N[C@@H](Cc1ccncc1)C(=O)O; αMeL = CC(C)C[C@](C)(N)C(=O)O; Lauroyl = CCCCCCCCCCCC(=O)*; Orn = NCCC[C@H](N)C(=O)O; AEEA = NCCOCCOCC(=O)O; Aib = CC(C)(N)C(=O)O
Tests used:
Format in all cases: cell-based
hGIPR = molecular target: T1, hGIPR (Homo sapiens, UniProt P48546); test: Functional cAMP formation (HTRF) in HEK-293 clonal cells expressing hGIPR, 0.1% bovine casein, without or with 1.0% human serum albumin; settings: for EC50: geometric mean; for Emax: read-out: hGIPR Emax, % ± SEM
T1 construct: expressed in transfected cells
T1 sequence (P48546 22-466): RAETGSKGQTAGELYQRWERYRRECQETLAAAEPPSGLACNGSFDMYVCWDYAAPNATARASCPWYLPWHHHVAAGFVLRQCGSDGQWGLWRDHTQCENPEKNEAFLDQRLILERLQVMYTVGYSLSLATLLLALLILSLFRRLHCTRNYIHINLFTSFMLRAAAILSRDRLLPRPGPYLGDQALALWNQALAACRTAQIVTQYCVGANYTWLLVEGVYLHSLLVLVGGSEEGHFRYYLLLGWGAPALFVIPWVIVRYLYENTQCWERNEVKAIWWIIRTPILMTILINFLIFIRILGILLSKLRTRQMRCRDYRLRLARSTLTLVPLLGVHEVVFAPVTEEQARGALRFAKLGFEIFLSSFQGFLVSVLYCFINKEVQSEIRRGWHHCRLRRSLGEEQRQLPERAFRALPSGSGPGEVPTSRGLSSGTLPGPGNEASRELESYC
Summary of the method: (§1)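 Cells were stimulated with peptide for 30 min at 37° C, then intracellular cAMP was measured by competitive HTRF (665/620 nm ratio) and converted to nM using a cAMP standard curve. Relative EC50 and Emax came from four-parameter logistic fits of percent maximal response against peptide concentration.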

hGCGR = molecular target: T2, hGCGR (Homo sapiens, UniProt P47871); test: Functional cAMP formation (HTRF) in HEK-293 clonal cells expressing hGCGR, 0.1% bovine casein, without or with 1.0% human serum albumin
T2 construct: expressed in transfected cells
Summary of the method: as §1

hGLP-1R = hGLP-1R (Homo sapiens, UniProt P43220); test: Functional cAMP formation (HTRF) in HEK-293 clonal cells expressing hGLP-1R, 0.1% bovine casein, without or with 1.0% human serum albumin; design: expressed in transfected cells
Summary of the method: as §1

[1] = 0.1% bovine casein and 1.0% human serum albumin, 37° C., read-out: hGIPR EC50, nM (SEM, n)
[2] = HEK293, 0.1% bovine casein and 1.0% human serum albumin, 37° C., percent of maximal response to GIP(1-42)NH2
[3] = cAMP, incubated at 37° C., 0.1% bovine casein (no human serum albumin), read-out: hGIPR EC50, nM (SEM, n)
[4] = 0.1% bovine casein and 1.0% human serum albumin, 37° C., geometric mean, read-out: hGCGR EC50, nM (SEM, n)
[5] = cAMP, incubated at 37° C., 0.1% bovine casein (no human serum albumin), geometric mean, read-out: hGCGR EC50, nM (SEM, n)
[6] = HEK293, 0.1% bovine casein and 1.0% human serum albumin, 37° C., percent of maximal response to GLP-1(7-36)NH2, read-out: hGLP-1R Emax, % ± SEM
[7] = HEK293, percent of maximal response to GLP-1(7-36)NH2, 37° C., 0.1% bovine casein, arithmetic mean, read-out: hGLP-1R Emax, % ± SEM
[8] = cAMP, incubated at 37° C., 0.1% bovine casein (no human serum albumin), geometric mean, read-out: hGLP-1R EC50, nM (SEM, n)

hGLP-1R, sequence (P43220 24-463): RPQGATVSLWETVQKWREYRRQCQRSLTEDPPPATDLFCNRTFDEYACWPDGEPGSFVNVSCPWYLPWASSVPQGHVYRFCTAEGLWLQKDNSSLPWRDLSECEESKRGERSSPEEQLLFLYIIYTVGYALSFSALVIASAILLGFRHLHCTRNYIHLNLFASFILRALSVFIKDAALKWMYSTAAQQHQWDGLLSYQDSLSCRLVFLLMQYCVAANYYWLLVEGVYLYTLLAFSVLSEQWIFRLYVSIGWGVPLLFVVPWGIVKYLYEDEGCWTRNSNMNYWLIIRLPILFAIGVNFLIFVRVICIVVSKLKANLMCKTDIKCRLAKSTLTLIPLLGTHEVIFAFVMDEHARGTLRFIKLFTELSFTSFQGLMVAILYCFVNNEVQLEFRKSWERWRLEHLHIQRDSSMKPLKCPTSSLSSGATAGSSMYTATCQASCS
T2 sequence (P47871 26-477): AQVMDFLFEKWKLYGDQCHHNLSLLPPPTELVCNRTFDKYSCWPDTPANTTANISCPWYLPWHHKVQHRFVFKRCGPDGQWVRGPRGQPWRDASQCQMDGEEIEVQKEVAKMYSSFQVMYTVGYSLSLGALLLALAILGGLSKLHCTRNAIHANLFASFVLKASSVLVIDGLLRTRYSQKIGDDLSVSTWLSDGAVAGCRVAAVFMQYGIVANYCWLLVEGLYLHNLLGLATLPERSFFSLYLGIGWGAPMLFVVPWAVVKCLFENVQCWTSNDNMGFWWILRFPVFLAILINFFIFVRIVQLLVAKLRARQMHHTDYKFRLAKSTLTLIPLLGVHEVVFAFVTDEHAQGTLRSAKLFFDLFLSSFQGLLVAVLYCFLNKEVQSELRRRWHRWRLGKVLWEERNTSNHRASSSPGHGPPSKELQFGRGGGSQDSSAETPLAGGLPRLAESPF

| SMILES | EC50 (hGIPR; [1]) [nM] | Emax (hGIPR; [2]) [%] | EC50 (hGIPR; [3]) [nM] | EC50 (hGCGR; [4]) [nM] | EC50 (hGCGR; [5]) [nM] | Emax (hGLP-1R; [6]) [%] | Emax (hGLP-1R; [7]) [%] | EC50 (hGLP-1R; [8]) [nM] | also measured |
| --- | --- | --- | --- | --- | --- | --- | --- | --- | --- |
| CC[C@H](C)[C@H](NC(=O)[C@H](CCCN)NC(=O)[C@H](CC(=O)O)NC(=O)[C@H](CC(C)C)NC(=O)[C@](C)(CC(C)C)NC(=O)[C@@H](NC(=O)[C@H](CO)NC(=O)[C@H](Cc1ccncc1)NC(=O)[C@H](CC(=O)O)NC(=O)[C@H](CO)NC(=O)[C@@H](NC(=O)[C@](C)(Cc1ccccc1F)NC(=O)[C@@H](NC(=O)CNC(=O)[C@H](CCC(=O)O)NC(=O)C(C)(C)NC(=O)[C@@H](N)Cc1ccc(O)cc1)[C@@H](C)O)[C@@H](C)O)[C@@H](C)CC)C(=O)N[C@@H](C)C(=O)N[C@@H](CCC(N)=O)C(=O)NC(C)(C)C(=O)N[C@@H](CCC(=O)O)C(=O)N[C@@H](Cc1ccccc1)C(=O)N[C@H](C(=O)N[C@H](CCC(=O)O)C(=O)N[C@@](C)(Cc1ccc(O)cc1)C(=O)N[C@@H](CC(C)C)C(=O)N[C@H](C(=O)N[C@@H](CCCCNC(=O)COCCOCCNC(=O)COCCOCCNC(=O)CCCCCCCCCCCCC(=O)O)C(=O)NCC(=O)NCC(=O)N1CCC[C@H]1C(=O)N[C@@H](CO)C(=O)N[C@@H](CO)C(=O)NCC(=O)N[C@@H](C)C(=O)N1CCC[C@H]1C(=O)N1CCC[C@H]1C(=O)N1CCC[C@H]1C(=O)N[C@@H](CO)C(=O)N[C@@H](CCCCNC(=O)COCCOCCNC(=O)COCCOCCNC(=O)CCCCCCCCCCCCC(=O)O)C(N)=O)[C@@H](C)CC)[C@@H](C)CC [Example 223] (H-Y[Aib]EGT[αMePhe(2-F)]TSD[4Pal]SI[αMeL]LD[Orn]IAQ[Aib]EFI[dE][αMeY]LIK([AEEA-AEEA-C14 diacid])GGPSSGAPPPSK([AEEA-AEEA-C14 diacid])-NH2) | 7.84 | 79.2 | 0.0252 | > 9950 | > 9950 | 115 | 94 | 1.43 |  |
| CC[C@H](C)[C@H](NC(=O)[C@H](CC(C)C)NC(=O)[C@](C)(Cc1ccc(O)cc1)NC(=O)[C@H](CCCCNC(=O)COCCOCCNC(=O)COCCOCCNC(=O)CC[C@H](NC(=O)CCCCCCCCCCCCC(=O)O)C(=O)O)NC(=O)[C@@H](NC(=O)[C@](C)(Cc1ccccc1)NC(=O)[C@H](CCC(=O)O)NC(=O)C(C)(C)NC(=O)[C@H](CCC(N)=O)NC(=O)[C@H](C)NC(=O)[C@H](CCCCNC(=O)COCCOCCNC(=O)COCCOCCNC(=O)CC[C@H](NC(=O)CCCCCCCCCCCCC(=O)O)C(=O)O)NC(=O)[C@H](CCCN)NC(=O)[C@H](CC(=O)O)NC(=O)[C@H](CC(C)C)NC(=O)[C@](C)(CC(C)C)NC(=O)[C@@H](NC(=O)C(C)(C)NC(=O)[C@@H](NC(=O)[C@H](CC(=O)O)NC(=O)[C@H](CO)NC(=O)[C@@H](NC(=O)[C@](C)(Cc1ccccc1F)NC(=O)[C@@H](NC(=O)CNC(=O)[C@H](CCC(=O)O)NC(=O)C(C)(C)NC(=O)[C@@H](N)Cc1ccc(O)cc1)[C@@H](C)O)[C@@H](C)O)C(C)C)[C@@H](C)CC)[C@@H](C)CC)C(=O)N[C@@H](CCC(=O)O)C(=O)NCC(=O)NCC(=O)N1CCC[C@H]1C(=O)N[C@@H](CO)C(=O)N[C@@H](CO)C(=O)NCC(=O)N[C@@H](C)C(=O)N1CCC[C@H]1C(=O)N1CCC[C@H]1C(=O)N1CCC[C@H]1C(=O)N[C@@H](CO)C(N)=O [Example 119] |  |  |  |  |  |  |  |  | EC50 (hGIPR; hGIPR EC50, nM (SEM, n), cAMP, incubated at 37° C., 0.1% bovine casein (no human serum albumin)): 0.0863 nM; EC50 (hGCGR; hGCGR EC50, nM (SEM, n), cAMP, incubated at 37° C., 0.1% bovine casein (no human serum albumin), geometric mean): > 9950 nM; Emax (hGLP-1R; HEK293, read-out: hGLP-1R Emax, % ± SEM, percent of maximal response to GLP-1(7-36)NH2, 37° C., 0.1% bovine casein, arithmetic mean): 99.4%; EC50 (hGLP-1R; hGLP-1R EC50, nM (SEM, n), cAMP, incubated at 37° C., 0.1% bovine casein (no human serum albumin), geometric mean): 0.351 nM |
| CCCCCCCCCCCC(=O)N[C@@H](CCC(=O)NCCOCCOCC(=O)NCCOCCOCC(=O)NCCCC[C@H](NC(=O)CNC(=O)[C@H](CC(=O)O)NC(=O)[C@H](CC(C)C)NC(=O)[C@](C)(CC(C)C)NC(=O)[C@@H](NC(=O)C(C)(C)NC(=O)[C@H](CCCCNC(=O)COCCOCCNC(=O)COCCOCCNC(=O)CC[C@H](NC(=O)CCCCCCCCCCC)C(=O)O)NC(=O)[C@H](CC(=O)O)NC(=O)[C@H](CO)NC(=O)[C@@H](NC(=O)[C@](C)(Cc1ccccc1F)NC(=O)[C@@H](NC(=O)CNC(=O)[C@H](CCC(=O)O)NC(=O)C(C)(C)NC(=O)[C@@H](N)Cc1ccc(O)cc1)[C@@H](C)O)[C@@H](C)O)[C@@H](C)CC)C(=O)N[C@@H](C)C(=O)N[C@@H](CCC(N)=O)C(=O)NC(C)(C)C(=O)N[C@@H](CCC(=O)O)C(=O)N[C@@H](Cc1ccccc1)C(=O)N[C@H](C(=O)N[C@H](CCC(=O)O)C(=O)N[C@@](C)(Cc1ccc(O)cc1)C(=O)N[C@@H](CC(C)C)C(=O)N[C@H](C(=O)N[C@@H](CCC(=O)O)C(=O)NCC(=O)NCC(=O)N1CCC[C@H]1C(=O)N[C@@H](CO)C(=O)N[C@@H](CO)C(=O)NCC(=O)N[C@@H](C)C(=O)N1CCC[C@H]1C(=O)N1CCC[C@H]1C(=O)N1CCC[C@H]1C(=O)N[C@@H](CO)C(N)=O)[C@@H](C)CC)[C@@H](C)CC)C(=O)O [Example 445] (H-Y[Aib]EGT[αMePhe(2-F)]TSDK([AEEA-AEEA-γGlu-Lauroyl])[Aib]I[αMeL]LDGK([AEEA-AEEA-γGlu-Lauroyl])AQ[Aib]EFI[dE][αMeY]LIEGGPSSGAPPPS-NH2; N-terminus assumed) |  |  |  |  |  |  |  |  | Emax (hGIPR; HEK293, cAMP, 37° C., 0.1% bovine casein and 1.0% human serum albumin, percent of maximal response to GIP(1-42)NH2): 91.4%; EC50 (hGIPR; cAMP, 37° C., 0.1% bovine casein (no human serum albumin), read-out: hGIPR EC50, nM (SEM, n)): 0.00728 nM; EC50 (hGCGR; cAMP, 37° C., 0.1% bovine casein (no human serum albumin), geometric mean, read-out: hGCGR EC50, nM (SEM, n)): > 9950 nM; EC50 (hGCGR; cAMP, 37° C., 0.1% bovine casein and 1.0% human serum albumin, geometric mean (SEM, n), read-out: hGCGR EC50, nM (SEM, n)): > 9950 nM; Emax (hGLP-1R; HEK293, cAMP, 37° C., 0.1% bovine casein and 1.0% human serum albumin, percent of maximal response to GLP-1(7-36)NH2, read-out: hGLP-1R Emax, % ± SEM): 100%; EC50 (hGLP-1R; cAMP, 37° C., 0.1% bovine casein (no human serum albumin), geometric mean, read-out: hGLP-1R EC50, nM (SEM, n)): 0.0781 nM; EC50 (hGLP-1R; cAMP, 37° C., 0.1% bovine casein and 1.0% human serum albumin, geometric mean (SEM, n), read-out: hGLP-1R EC50, nM (SEM, n)): 13.1 nM |
| CC[C@H](C)[C@H](NC(=O)[C@H](CCCN)NC(=O)[C@H](CC(=O)O)NC(=O)[C@H](CC(C)C)NC(=O)[C@](C)(CC(C)C)NC(=O)[C@@H](NC(=O)C(C)(C)NC(=O)[C@H](Cc1ccncc1)NC(=O)[C@H](CC(=O)O)NC(=O)[C@H](CO)NC(=O)[C@@H](NC(=O)[C@](C)(Cc1ccccc1F)NC(=O)[C@@H](NC(=O)CNC(=O)[C@H](CCC(=O)O)NC(=O)C(C)(C)NC(=O)[C@@H](N)Cc1ccc(O)cc1)[C@@H](C)O)[C@@H](C)O)[C@@H](C)CC)C(=O)N[C@@H](C)C(=O)N[C@@H](CCC(N)=O)C(=O)NC(C)(C)C(=O)N[C@@H](CCCCNC(=O)COCCOCCNC(=O)COCCOCCNC(=O)CC[C@H](NC(=O)CCCCCCCCCCCCC(=O)O)C(=O)O)C(=O)N[C@@H](Cc1ccccc1)C(=O)N[C@H](C(=O)N[C@H](CCC(=O)O)C(=O)N[C@@](C)(Cc1ccc(O)cc1)C(=O)N[C@@H](CC(C)C)C(=O)N[C@H](C(=O)N[C@@H](CCCCNC(=O)COCCOCCNC(=O)COCCOCCNC(=O)CC[C@H](NC(=O)CCCCCCCCCCCCC(=O)O)C(=O)O)C(=O)NCC(=O)NCC(=O)N1CCC[C@H]1C(=O)N[C@@H](CO)C(=O)N[C@@H](CO)C(=O)NCC(=O)N[C@@H](C)C(=O)N1CCC[C@H]1C(=O)N1CCC[C@H]1C(=O)N1CCC[C@H]1C(=O)N[C@@H](CO)C(N)=O)[C@@H](C)CC)[C@@H](C)CC [Example 220] | 11.6 | 83.5 | 0.0237 | > 9950 | > 9950 | 110 | 87.6 | 0.535 | Emax (hGIPR; HEK293, percent of maximal response to GIP(1-42)NH2, 37° C., 0.1% bovine casein, arithmetic mean): 91.6%; EC50 (hGLP-1R; 0.1% bovine casein and 1.0% human serum albumin, 37° C., geometric mean, read-out: hGLP-1R EC50, nM (SEM, n)): 150 nM |

Reference: patent US20230265151A1, “GIP/GLP1 CO-AGONIST COMPOUNDS” (priority 2020, published 2023)
